Laboratory results as given in patent US20160287536A1, “Composition” (THE UNIVERSITY OF NOTTINGHAM, priority 2013, published 2016).
Where two headings read alike, the source gives them in different places.

Experiments:
vascular preparations = conditions: 100 μM; cited from earlier work
nitric oxide synthase = conditions: 100 μM; cited from earlier work
[1] = tested on: sheep isolated rectal vein; assay: Wire myography, sheep isolated rectal vein (SRV); assay type: cell-based; conditions: SRV
Procedure: Sheep mesenteric tissue, from the distal sigmoid colon to the anus, was obtained from a local abattoir. The sheep tissue was delivered in a dry bag and stored at 4° C. until dissected. The bundle of sheep rectal vessels was dissected from its mesentery within four hours of arrival from the abattoir. The vascular bundle was then kept in the pre-oxygenated Krebs-Henseleit buffer solution at 4° C. until used (on the same day as a preferential method or on the following day after storage overnight). No experiments were conducted on tissue stored for more than 24 hours after dissection. The Krebs solution consisted of 118.4 mM NaCl, 4.7 mM KCl, 1.2 mM MgSO4, 1.2 mM KH2PO4, 1.25 mM CaCl2, 24.9 mM NaHCO3, and 11.1 mM glucose.
Before setting a wire myography experiment, the remaining loose connective tissue was meticulously removed from the rectal vessels. The internal diameter of sheep isolated rectal artery and vein was 450-650 μm and 500-1000 μm, respectively. Each 5-mm ring segment of the ‘clean’ vessels was then suspended between two 200-μm wire supports in an organ bath containing 20 ml Krebs-Henseleit buffer solution. The upper supporting wire was attached to an isometric force transducer, while the lower wire was fixed steadily to a clamped glass rod. The bath solution was maintained at 37° C., and continuously gassed with 95% O2 and 5% CO2. Isometric tension was continuously recorded using a PowerLab 4/25 via QUAD Bridge amplifier (ADInstruments, Inc, Australia).
After a 10-minute equilibration period, an initial tension of 8 gram weight (g wt) was gradually applied for an arterial segment and left to relax for 30 minutes. The final tension of SRA varied between 1.0 g wt and 2.8 g wt. For a venous segment, an initial tension of 1 g wt was applied and, 10 minutes later, the resting tension was finally re-adjusted to reach a tension of 0.5 g wt. Then the vein was left to relax for further 20 minutes. The final tension of SRV ranged from 0.08 to 0.25 g wt. Once the vascular segments were fully settled, the tissues were tested for contractile activity with 60 mM KCl on three occasions. The vascular contraction was allowed to reach maximum, which generally took about 1-4 minutes. Each KCl challenge was followed by two washouts of 37° C. Krebs solution and the tissues were allowed to rest for 20 minutes between the challenges. The maximum contraction (tension) produced by the third administration of 60 mM KCl was used as a reference contraction to which subsequent responses were compared. After the final (3rd) KCl challenge, the tissues were washed and left for 60 minutes before α-adrenoceptor agonist was administrated. To construct an agonist concentration-response curves (CRC), 0.3-0.4 log 10 increments of agonist solution was added e.g. at the agonist concentration of 100 nM, 200 nM, 500 nM, 1 μM, 2 μM, 5 μM, and so on. Each response was allowed to reach equilibrium or plateau before the next dose of agonist was added. The maximal response to the agonist was considered when no further increase in response occurred upon the addition of two or more consecutive doses of agonist.
In the case of the noradrenaline study, 10 μM cocaine was added into the organ bath 40 minutes prior to the administration of noradrenaline for inhibiting the uptake of noradrenaline by neural tissue within the vascular wall (re-uptake 1) (Westfall & Westfall, 2006 In Goodman & Gilman's the Pharmacological Basis of Therapeutics. eds Brunton, L. L., Lazo, J. S. & Paker, K. L. pp. 137-181. New York: McGraw Hill). Regarding KCl-induced vasoconstriction, the CRC was generated by the contractile response to 6 mM increments of KCl solution, starting from 0 mM to 60 mM.
Consecutive CRCs were generated to each agonist, separated by 60 minutes, and if there was no difference in the maximum response (Emax) and pEC50 (defined as the negative logarithm of the concentration required to produce 50% of the maximum response) then a paired CRC protocol was used throughout. […]

[2] = tested on: porcine isolated tail artery
Procedure: U46619 was added to produce a contraction equivalent to 60% of KCl followed by sufficient to forskolin to causes a relaxation back to baseline. Cumulative concentration response curves to brimondine and phenylephrine were elicited in the presence and absence of the combination of U4/For. Responses have been expressed a percent of the contraction to 60 mM KCl and represent the mean of 5-6 separate observations.

α2-adrenoceptor [3] = assay: Saturation radioligand binding of [^3H]-RX821002 to sheep anorectal tissue membranes
Procedure: Fresh sheep anorectal tissues were dissected from whole buttock from sheep within four hours of slaughter. The buttocks were delivered in a dry bag and stored at 4° C. until dissected. The tissues used in this experiment included rectal smooth muscle (RSM), rectal mucosa (RM), anal mucosa (AM), internal anal sphincter (IAS), sheep rectal artery (SRA), sheep rectal vein (SRV), and the terminal branches of rectal vessels (TB). The dissected tissues were kept at −20° C. until used. Prior to starting an experiment, the tissue was removed from the freezer and allowed to defrost on ice. […] Non-specific binding was determined using an excessive amount of unlabelled specific receptor ligand. […] Three ml of scintillation fluid (PerkinElmer, UK) was subsequently added into each vial, and left at least 8 hours (preferably overnight) before processing for radioactivity measurement. The amount of radioactivity bound to the filters was measured using a liquid scintillation analyser (Tri-Carb 2100TR, PerkinElmer, UK). The radioactivity was reported as disintegrations per minute (dpm). […] Specific binding of the radioligand to the membranes was calculated by subtracting the non-specific binding from the total binding. Receptor density (Bmax) and ligand dissociation constant (Kd) were then calculated using the specific saturation binding curve of each experiment.

α2-adrenoceptor [4] = conditions: porcine vessels; cited from earlier work

## CN(C)C(N)=NCCC[C@H](N)C(=O)O [ADMA, Asymmetric dimethyl arginine]
Vascular preparations
  effect on vasoconstrictor responses to phenylephrine: enhance the vasoconstrictor responses to phenylephrine
Nitric oxide synthase
  inhibition of nitric oxide synthase: inhibit nitric oxide synthase

## Brc1c(NC2=NCCN2)ccc2nccnc12 [UK14304, brimonidine]
[1]
  contractile response: concentration-dependent contractions
[1]; the rest <10% of the response to 60 mM KCl
  veins with concentration-dependent contraction: 6 out of 12
[2]
  contractile responses in the presence of the combination of U46619 and forskolin: enhanced

## COC1(C2=NCCN2)COc2ccccc2O1 (centres unmarked) [[^3H]-RX821002, 2-(2-methoxy-1,4-benzodioxan-2-yl)-2-imidazoline]
α2-adrenoceptor [3]; sheep rectal arteries, read-out: Kd of radioligand for α2-adrenoceptor
  Kd: 1.42 nM
α2-adrenoceptor [3]; sheep rectal vein and terminal branches of sheep rectal vessels, read-out: Kd of α2-adrenoceptor
  Kd: ~0.3 nM
α2-adrenoceptor [4]
  Kd: 1.3 to 2.2 nM
